Experimental data: patent publication US20260355192A1, “PROPHYLACTIC OR THERAPEUTIC AGENT FOR PERIOSTIN-MEDIATED DISEASE AND PRURITUS ASSOCIATED THEREWITH” (SAGA UNIVERSITY, priority 2022, published 2026)

Key:
[1] = test system: neurons in the posterior horn surface of the spinal cord; assay: In vivo extracellular recording from the posterior horn surface of the spinal cord in FADS mice (spontaneous firing); parameters: species or system mouse (FADS); conditions: 53.7 μmol/kg i.p.; FIG. 3
Protocol: In Vivo Extracellular Recording from the Posterior Horn Surface of the Spinal Cord in FADS Mice
FADS mice were administered intraperitoneally with 1.5 g/kg of urethane and anesthetized, followed by dorsal lumbar laminectomy. The first to sixth lumbar vertebrae were exposed, and each mouse was set on a stereotaxic apparatus. Under a microscope, the dural, arachnoidal and pial membranes were removed, and the spinal cord surface was warmed at 36±1 °C, followed by perfusion at 15 to 20 mL/min with an artificial cerebrospinal fluid (composition: NaCl (117 mM), KCl (3.6 mM), CaCl2) (2.5 mM), MgCl2 (1.2 mM), NaH2PO4 (1.2 mM), glucose (11 mM), NaHCO3 (25 mM)) saturated with 95% 02 to 5% CO2. Into the exposed spinal cord, a tungsten electrode (tip diameter: […], tip impedance: 9 to 12 MΩ) was inserted (latero-medial), and records were obtained from neurons in the posterior horn surface of the spinal cord.
CP4715 was dissolved at 89.5 mM in a diluent (physiological saline containing 50% DMSO and 89.5 mM hydrochloric acid), from which an amount corresponding to 53.7 μmol/kg per mouse was then taken and diluted with 0.3 mL of physiological saline, and then administered intraperitoneally (i.p.). 0.3 mL of physiological saline containing an equal amount of the diluent as calculated based on the body weight was administered as a control. When recorded from the spinal cord posterior horn of the FADS mice, neurons with spontaneous firing could be recorded. When the above control solution was first administered intraperitoneally, there was little change in the frequency of spontaneous firing during 30 minutes after administration.

αvβ3 integrin = conditions: cited from earlier work
[2] = test system: scratching behaviors in FADS mice; assay: Scratching behaviors in FADS mice upon repeated percutaneous administration of CP4715; assay type: in vivo, mouse (FADS, Nestin-cre/Ikk2ff); conditions: 30 μL of 26.85 mM solution externally applied once a day for 28 days to facial rash lesions; FIG. 7
Text: (§1) Nestin-cre transgenic mice were crossed with IKK2^ff mice to prepare Nestin-cre/Ikk2^ff mice specifically lacking IKK2 in their facial skin fibroblasts (Nunomura S, et al. J Invest Dermatol. 139:1274-1283, 2019). These mice inevitably develop atopic dermatitis-like rash limited to the face and intense itchy symptoms, and were therefore designated as Facial Atopic Dermatitis with Scratching (FADS) mice. […] For evaluation of the prophylactic or therapeutic agent of the present invention, FADS mice at 3 to 4 weeks of age or older were used because of showing spontaneous scratching behaviors. It should be noted that in this Example section, the above compound of formula (I) (more particularly “CP4715”) was used as the prophylactic or therapeutic agent of the present invention.
(§2) FADS mice were acclimated for 20 minutes to the environment of a recording cage, and then recorded with a video camera. The recorded videos were replayed, and scratching behaviors were counted assuming that hind paw scratching to the face and the subsequent movement of toe licking or paw lowering to the ground were regarded as one cycle of scratching behavior.
CP4715 was dissolved in a diluent (5% DMSO/15% N-methyl-2-pyrrolidone/80% ethanol) to prepare a 26.85 mM solution. […] Before administration and on Days 3, 7, 14, 21 and 28 of administration, the number of scratchings during 60 minutes was counted for evaluation.

[3] = test system: scratching behaviors in FADS mice; assay: Scratching behaviors in FADS mice upon repeated systemic administration of CP4715; assay type: in vivo, mouse (FADS, Nestin-cre/Ikk2ff); conditions: at 1 week and 2 weeks after administration; 107.4 μmol/kg twice a day under the dorsal skin; Mann-Whitney's U-test vs diluent control; FIG. 1
Text: as §1
as §2, with “behavior. […]” for “behavior.”
At 1 week and 2 weeks after drug administration, the mice were recorded for 60 minutes and analyzed to calculate the number of scratchings per minute for evaluation. […]

[4] = test system: scratching behaviors in FADS mice; assay: Scratching behaviors in FADS mice upon single systemic administration of CP4715; assay type: in vivo, mouse (FADS, Nestin-cre/Ikk2ff); conditions: 53.7 μmol/kg i.p., FIG. 2
Text: Nestin-cre transgenic mice were crossed with IKK2^ff mice to prepare Nestin-cre/Ikk2^ff mice specifically lacking IKK2 in their facial skin fibroblasts (Nunomura S, et al. J Invest Dermatol. 139:1274-1283, 2019). These mice inevitably develop atopic dermatitis-like rash limited to the face and intense itchy symptoms, and were therefore designated as Facial Atopic Dermatitis with Scratching (FADS) mice. […] For evaluation of the prophylactic or therapeutic agent of the present invention, FADS mice at 3 to 4 weeks of age or older were used because of showing spontaneous scratching behaviors. […]
as §2
Prior to CP4715 administration, FADS mice were recorded for 60 minutes and then allowed to rest for 30 minutes. […] Mice administered with 0.3 mL of PBS containing an equal amount of the diluent as calculated based on the body weight were used as a control group.
The mice were recorded for 80 minutes immediately after drug administration. […]

COc1cc(C(=O)NC[C@H](NS(=O)(=O)c2ccccc2)C(=O)O)ccc1N1CCC(NC2=NCCCN2)CC1 [CP4715, (S)-3-(3-methoxy-4-(4-((1,4,5,6-tetrahydropyrimidin-2-yl)amino)piperidin-1-yl)benzamido)-2-(phenylsulfonamido)propanoic acid]
time after administration at which firing returned to the initial frequency [1]: 60 min
time after administration at which the frequency of firing started to decrease [1]: 20 min
time after administration at which the frequency of firing was most strongly suppressed [1]: 40 min
antagonistic effect on αvβ3 integrin (αvβ3 integrin): antagonistic effect
time-dependent enhancement of scratching behaviors [2]: suppressed
scratching behaviors (number of scratchings per minute) [3]: significantly suppressed (P<0.05)
time after administration until which the suppressive effect on scratching was sustained [4]: 60 min
scratching behaviors (number of scratchings per minute) ([4]; at 20 minutes or later after administration, Mann-Whitney's U-test vs diluent control): significantly suppressed (P<0.05)
